The values below come from publication PMC13107025 (2025).

Assay [1] relates to c-Myc G4 (DNA, G4) GCGCTTATGGGGAGGGTGGGGAGGGTGGGGAAGGTGGGGAGGAGAC
Briefly: FRET melting (real-time PCR). The conditions noted are these: 50 mM KCl; Tris-HCl pH 7.4; 1 μM oligonucleotide, EKB 8 eq (8 μM). Background: Quantitative PCR measures a nucleic acid by following its amplification.

Assay [2] has as its system c-KIT G4 (UV titration) (DNA, G4) AGGGAGGGCGCTGGGAGGAGGGG
Briefly: UV-visible absorption titration. The conditions noted are these: 100 mM KCl; 10 mM Tris-HCl pH 7.4, room temperature; EKB 20 μM, G4:EKB 1:1 to 8:1.

Assay [3] deals with k-RAS G4 (UV titration) (DNA, G4) AGGGCGGTGTGGGAAGAGGGAAGAGGGGGAGG
Briefly: UV-visible absorption titration. Conditions: 100 mM KCl; 10 mM Tris-HCl pH 7.4, room temperature; EKB 20 μM, G4:EKB 1:1 to 8:1.

For assay [4], the system named is Bcl-2 G4 (DNA, G4) CGGGCGGGAGCGCGGCGGGCGGGCGGG
Briefly: FRET melting (real-time PCR). Conditions: 50 mM KCl; Tris-HCl pH 7.4; 1 μM oligonucleotide, EKB 8 eq (8 μM).

For assay [5], the system named is c-Myc G4 (UV titration) (DNA, G4) GCGCTTATGGGGAGGGTGGGGAGGGTGGGGAAGGTGGGGAGGAGAC
Briefly: UV-visible absorption titration. Conditions: 100 mM KCl; 10 mM Tris-HCl pH 7.4, room temperature; EKB 20 μM, G4:EKB 1:1 to 8:1.

Assay [6] has as its system k-RAS G4 (DNA, G4) AGGGCGGTGTGGGAAGAGGGAAGAGGGGGAGG
Briefly: FRET melting (real-time PCR). Conditions: 50 mM KCl; Tris-HCl pH 7.4; 1 μM oligonucleotide, EKB 8 eq (8 μM).

Assay [7] deals with G4 (DNA, G4) GGGGAGGGGCTGGGAGGGCCCGGAGGGGGCTGGGCCGGGGACCCGGGAGGGGTCGGGACGGGGCGGGG
Briefly: FRET melting (real-time PCR). Conditions: 50 mM KCl; Tris-HCl pH 7.4; 1 μM oligonucleotide, EKB 8 eq (8 μM).

Assay [8] deals with c-KIT G4 (DNA, G4) AGGGAGGGCGCTGGGAGGAGGGG
Briefly: FRET melting (real-time PCR). Conditions: 50 mM KCl; Tris-HCl pH 7.4; 1 μM oligonucleotide, EKB 8 eq (8 μM).

For assay [9], the system named is Bcl-2 G4 (UV titration) (DNA, G4) CGGGCGGGAGCGCGGCGGGCGGGCGGG
Briefly: UV-visible absorption titration. Conditions: 100 mM KCl; 10 mM Tris-HCl pH 7.4, room temperature; EKB 20 μM, G4:EKB 1:1 to 8:1.

Assay [10] deals with dsDNA (DNA, duplex) CAATCGGATCGAATTCGATCCGATTG
Briefly: FRET melting (real-time PCR). The conditions noted are these: 50 mM KCl; Tris-HCl pH 7.4; 1 μM oligonucleotide, EKB 8 eq (8 μM).

As a reminder, the ΔTm is the shift of the melting midpoint relative to a reference. For the molecule `CC(C)=CCc1cc(-c2cc(=O)c3c(O)cc(O)c(CC=C(C)C)c3o2)cc(O)c1O`, the ΔTm in [1] is 3.90 °C; in [4], 7.09 °C; in [6], 3.22 °C; in [7], 2.12 °C; in assay [8], 4.17 °C; in assay [10] it was “–1.16 °C”. The binding entry in assay [2], in assay [3], in assay [5] and in assay [9] was “yes” each time.
